Data on four compounds can be found in patent US5700789A, “Antiallergic composition comprising a phosphoric diester compound” (Senju Pharmaceutical Co., Ltd., priority 1995, dated 1997).

For series [1], the system named is palpebral edema induced by the histamine releaser Compound 48/80. Description: Palpebral edema induced by the histamine releaser Compound 48/80 in rats (topical instillation). In kind it is in vivo, rat (male SD). The settings on record: 5 μl/eye of 0.1% test material; for Inhibition rate: edema inhibition rate with respect to the control group, 4 hr after Compound 48/80; for Edema weight: male SD rats, 6 instillations, wet weight 4 hr after Compound 48/80, * p<0.001 vs control. How it is done: The effect of the compound of the invention on the palpebral edema induced by the histamine releaser Compound 48/80 (the condensation product of N-methyl-p-methoxy-phenethylamine with formaldehyde) (Sigma Chemical Company) was evaluated.
(1) 0.1% L-ascorbyl DL-α-tocopheryl phosphate sodium (Abbreviation: EPC-Na) (dissolved in physiological saline and adjusted to pH 7.0)
(2) 0.1% diphenhydramine hydrochloride (an antihistaminic) (dissolved in physiological saline)
Method: Male SD rats weighing about 180 g were used.
The rats were divided into three groups, i.e. a control group, an EPC-Na group, and a diphenhydramine HCl group, and 20 μl/eye of 0.008% Compound 48/80 (dissolved in physiological saline) was injected subconjunctivally at both lids to induce palpebral edema. Two (2), 1, and 0.5 hr before subconjunctival injection and 0.5, 1.5, and 2.5 hr after the injection, rats in the control group were topically treated with 5 μl/eye of physiological saline and those in the EPC-Na group and diphenhydramine HCl group were similarly treated with 5 μl/eye of the corresponding test materials. Four (4) hr after injection of Compound 48/80 (1.5 hr after the last instillation), the rats were sacrificed and the edematous portion of the palpebra was excised, its wet weight (mg) was determined, and the edema inhibition rate (%) with respect to the control group was calculated.

Series [2] concerns Type III allergic conjunctivitis. Description: Type III allergic conjunctivitis in rats (rat antirabbit serum injected subconjunctivally). The class given is in vivo. The following applies: 5 μl/eye, 6 instillations, 0.1% EPC-Na or 0.1% as dexamethasone, wet weight 0.5 hr after last instillation, mean ± S.D. (n = 4), * p<0.001 vs control. How it is done: The effect of the compound of the invention on Type III allergic conjunctivitis was evaluated.
(1) 0.1% EPC-Na (dissolved in physiological saline)
(2) 0.15% dexamethasone sodium metasulfobenzoate
(Visualin Ophthalmic Solution (registered trademark, Senju Pharmaceutical Co. Ltd.) (0.1% as dexamethasone, hereinafter referred to briefly as dexamethasone)
The rats were divided into three groups, namely a control group, an EPC-Na group and a dexamethasone group, and 30 μl of rat antirabbit serum was injected subconjunctivally at both lids. Two (2), 1.5, and 0.5 hr before subconjunctival injection and 0.5, 1.5, and 2.5 hr after the injection, rats in the control group were topically treated with 5 μl/eye of physiological saline and those in the test groups were similarly treated with 5 μl/eye of the respective test materials. At 0.5 hr after the last instillation, the rats were sacrificed, the edema weight (wet weight/mg) was determined, and the inhibition rate (%) with respect to the control group was calculated.

A short description of series [3]: Acute toxicity (LD50) in rats. The settings on record: rat, in vivo, iv; i.v. (rats).

Molecules are shown by their SMILES. Structures can show the parent of a compound that is named as a salt. Some results are limits rather than exact numbers.

`CN(C)CCOC(c1ccccc1)c1ccccc1` [Diphenhydramine HCl, diphenhydramine hydrochloride, reference compound]: in series [1], the Inhibition rate is 44.8% and the Edema weight came out at 63.2 ± 8.2 mg.
`C[C@@H]1C[C@H]2[C@@H]3CCC4=CC(=O)C=C[C@]4(C)[C@@]3(F)[C@@H](O)C[C@]2(C)[C@@]1(O)C(=O)COC(=O)c1cccc(S(=O)(=O)O)c1` [Dexamethasone, dexamethasone sodium metasulfobenzoate, reference compound] registered an Edema weight in series [2] of 58.2 ± 3.8 mg.
In series [1], `Cc1c(C)c2c(c(C)c1OP(=O)(O)OC1=C(O)[C@@H]([C@@H](O)CO)OC1=O)CCC(C)(CCCC(C)CCCC(C)CCCC(C)C)O2` (mixture of isomers) [EPC-Na, L-ascorbyl DL-α-tocopheryl phosphate sodium] displayed an Inhibition rate of 33.5% and an Edema weight of 76.1 ± 11.6 mg. Moreover, in series [2], the Edema weight is 57.4 ± 8.1 mg.
What is called LD50 is the dose expected to kill half of the subjects tested. In series [3], `Cc1c(C)c2c(c(C)c1OP(=O)(O)OC1=C(O)[C@@H]([C@@H](O)CO)OC1=O)CCC(C)(CCCC(C)CCCC(C)CCCC(C)C)O2` (mixture of isomers) [EPC-K, L-ascorbyl DL-α-tocopheryl phosphate potassium] showed an LD50 of at least 100 mg/kg.
